Measurements from patent US11607422B2, “Uttroside B and derivatives thereof as therapeutics for hepatocellular carcinoma” (Rajiv Gandhi Centre for Biotechnology, an Autonomous …, priority 2016, dated 2023).

Key:
HL60 = assay: MTT cell viability assay in HL60 cells; format: cell-based; details: 72 h
Procedure: (§1) FIG. 2A is a graph comparison of IC50 of Uttroside B in a panel of cancer cells of different origin. The cancer cell lines HeLa, A375, HepG2, MDA-MB-231, HL 60, A549 and HCT116 were treated with Uttroside B as indicated, incubated for 72 h and the cell viability was assessed by MTT assay. FIG. 2B is a graph showing dose dependent effect of Uttroside B in the liver cancer cell lines and in normal immortalized hepatocytes. The liver cancer cell lines HepG2, Hep3B, SKHEP-1, Huh-7 and normal hepatocytes (Chang liver), were treated with Uttroside B incubated for 72 h and the cell viability was assessed by MTT assay. FIG. 2C is a graph comparison of IC50 of Uttroside B with sorafenib. HepG2 cells were treated with Uttroside B as indicated, incubated for 72 h, and the cell viability was assessed by MTT assay. […] The clones developed were counted and plotted as a graph. Colony containing more than four cells was counted as one clone. […]
(§2) MTT [3-(4,5-dimethylthiazole-2-yl)-2,5-diphenyltetrazolium bromide] assay is a standard colorimetric assay, suitable for analyzing proliferation, viability, and cytotoxicity. […] After overnight incubation, cells were treated with different concentrations of organic extracts (25-250 μg/ml) of S. nigrum and the isolated compound Uttroside B (250-1250 nM) for 72 h and cytotoxicity was measured. […]

HepG2 cells = assay: Autophagy flux assay using PtfLC3 (GFP-RFP-LC3) reporter protein; format: cell-based, human; details: 500 nM, 24 h, transfected HepG2
Source text: The development of a new vector called ptf-LC3B leading to the expression of a double-tagged GFP-RFP-LC3B protein has helped in the study of autophagy flux and this recombinant protein allows to distinguish between autophagosomes (in yellow) and autophagolysosomes (in red).^33 The pGFP-mRFP-LC3B (ptf-LC3) vector was purchased from Addgene (21074). Briefly, plasmid present in the bacterial pellet was isolated according to manufacturer's instruction (GenElute™ Plasmid Miniprep Kit-Sigma-Aldrich). HepG2 cells were transfected transiently with tandem repeats of GFP-RFP tagged LC3 (ptfLC3) using the Lipofectamine LTX and Plus Reagent Kit (Invitrogen, USA) according to manufacturer's protocol. Briefly, PtfLC3 vector Opti-MEM transfection medium (Solution A) was mixed with Lipofectamine reagent dissolved in Opti-MEM transfection medium (Solution B) and incubated for 45 min at room temperature. […]
Quantitative analysis of autophagy flux using tandem GFP-RFP LC3 reporter protein. […] FIG. 29 is a bar diagram showing the quantitative analysis of autophagy induced by Uttroside B in HepG2 cells. HepG2 cells were transfected transiently with plasmid encoding GFP-RFP-LC3 as described previously and the punctae observed were counted and plotted as a histogram. The next attempt was to verify and quantitate the autophagic flux induced by Uttroside B using a tandem GFP-RFP LC3 reporter protein. […]

HeLa = assay: MTT cell viability assay in HeLa cells; format: cell-based; details: 72 h
Procedure: as §1, §2

HCT-116 = details: literature ref 13; read-out: IC50, cytotoxicity against HCT-116 (colon cancer cells); cited from earlier work

C[C@H](CC[C@@]1(O)O[C@H]2C[C@H]3[C@@H]4CC[C@H]5C[C@@H](O[C@@H]6O[C@H](CO)[C@H](O[C@@H]7O[C@H](CO)[C@@H](O)[C@H](O[C@@H]8OC[C@@H](O)[C@H](O)[C@H]8O)[C@H]7O[C@@H]7O[C@H](CO)[C@@H](O)[C@H](O)[C@H]7O)[C@H](O)[C@H]6O)CC[C@]5(C)[C@H]4CC[C@]3(C)[C@H]2[C@@H]1C)CO[C@@H]1O[C@H](CO)[C@@H](O)[C@H](O)[C@H]1O [Uttroside B]
IC50 (HL60): 2500 nM | GFP-RFP-LC3 puncta (HepG2 cells): increase in amount of yellow puncta and red puncta | IC50 (HeLa): 1500 nM | IC50 (HCT-116): 2330 nM
